From PubChem BioAssay (NCI)
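In this assay, cells in 96-well plates receive the compound at five concentrations for 48 hours. Endpoints are linearly interpolated between the surrounding concentrations. TGI denotes the concentration required for complete inhibition of growth.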

Columns and labels:
Test in all cases: NCI anticancer screen, dose series, 48 h
HT29 colon = system: HT29 colon
DU-145 prostate = system: DU-145 prostate
MDA-N = system: MDA-N
BT-549 breast = system: BT-549 breast
786-0 renal = system: 786-0 renal
SN12C renal = system: SN12C renal
HL-60(TB) leukemia = system: HL-60(TB) leukemia
RPMI-8226 leukemia = system: RPMI-8226 leukemia
SF-295 CNS = system: SF-295 CNS
KM12 colon = system: KM12 colon
MOLT-4 leukemia = system: MOLT-4 leukemia
SK-MEL-28 melanoma = system: SK-MEL-28 melanoma
NCI-H23 lung = system: NCI-H23 lung
EKVX NSCLC = system: EKVX NSCLC
UACC-257 melanoma = system: UACC-257 melanoma
A498 renal = system: A498 renal
MDA-MB-435 = system: MDA-MB-435
MDA-MB-231 breast = system: MDA-MB-231 breast
SF-539 CNS = system: SF-539 CNS
SNB-19 CNS = system: SNB-19 CNS
M14 melanoma = system: M14 melanoma
HCT-15 colon = system: HCT-15 colon
NCI-H226 lung = system: NCI-H226 lung
LOX IMVI melanoma = system: LOX IMVI melanoma
OVCAR-3 ovarian = system: OVCAR-3 ovarian
OVCAR-4 ovarian = system: OVCAR-4 ovarian
PC-3 prostate = system: PC-3 prostate
HCT-116 colon = system: HCT-116 colon
CCRF-CEM leukemia = system: CCRF-CEM leukemia
NCI/ADR-RES ovarian = system: NCI/ADR-RES ovarian
NCI-H522 lung = system: NCI-H522 lung
SK-MEL-5 melanoma = system: SK-MEL-5 melanoma
SK-MEL-2 melanoma = system: SK-MEL-2 melanoma
SR leukemia = system: SR leukemia
TK-10 renal = system: TK-10 renal
COLO 205 colon = system: COLO 205 colon
HOP-62 NSCLC = system: HOP-62 NSCLC
SK-OV-3 ovarian = system: SK-OV-3 ovarian
MCF7 breast = system: MCF7 breast
UO-31 renal = system: UO-31 renal
T-47D breast = system: T-47D breast
HOP-92 NSCLC = system: HOP-92 NSCLC
OVCAR-5 ovarian = system: OVCAR-5 ovarian
HCC-2998 colon = system: HCC-2998 colon
A549 NSCLC = system: A549 NSCLC
U251 CNS = system: U251 CNS
OVCAR-8 ovarian = system: OVCAR-8 ovarian
ACHN renal = system: ACHN renal
IGROV1 ovarian = system: IGROV1 ovarian
UACC-62 melanoma = system: UACC-62 melanoma
SW-620 colon = system: SW-620 colon
CAKI-1 renal = system: CAKI-1 renal
K-562 leukemia = system: K-562 leukemia
NCI-H460 lung = system: NCI-H460 lung
MALME-3M melanoma = system: MALME-3M melanoma
SF-268 CNS = system: SF-268 CNS
SNB-75 CNS = system: SNB-75 CNS
RXF 393 renal = system: RXF 393 renal

SMILES: O=c1[nH]cnc2c1cnn2Cc1cn(COCC(O)CO)nn1 (stereo not given)
- TGI (HT29 colon): > 100 µM
- TGI (DU-145 prostate): > 100 µM
- TGI (MDA-N): > 100 µM
- TGI (BT-549 breast): > 100 µM
- TGI (786-0 renal): > 100 µM
- TGI (SN12C renal): > 100 µM
- TGI (HL-60(TB) leukemia): > 100 µM
- TGI (RPMI-8226 leukemia): > 100 µM
- TGI (SF-295 CNS): > 100 µM
- TGI (KM12 colon): > 100 µM
- TGI (MOLT-4 leukemia): > 100 µM
- TGI (SK-MEL-28 melanoma): > 100 µM
- TGI (NCI-H23 lung): > 100 µM
- TGI (EKVX NSCLC): > 100 µM
- TGI (UACC-257 melanoma): > 100 µM
- TGI (A498 renal): > 100 µM
- TGI (MDA-MB-435): > 100 µM
- TGI (MDA-MB-231 breast): > 100 µM
- TGI (SF-539 CNS): > 100 µM
- TGI (SNB-19 CNS): > 100 µM
- TGI (M14 melanoma): > 100 µM
- TGI (HCT-15 colon): > 100 µM
- TGI (NCI-H226 lung): > 100 µM
- TGI (LOX IMVI melanoma): > 100 µM
- TGI (OVCAR-3 ovarian): > 100 µM
- TGI (OVCAR-4 ovarian): > 100 µM
- TGI (PC-3 prostate): > 100 µM
- TGI (HCT-116 colon): > 100 µM
- TGI (CCRF-CEM leukemia): > 100 µM
- TGI (NCI/ADR-RES ovarian): > 100 µM
- TGI (NCI-H522 lung): 62.7 µM
- TGI (SK-MEL-5 melanoma): > 100 µM
- TGI (SK-MEL-2 melanoma): > 100 µM
- TGI (SR leukemia): > 100 µM
- TGI (TK-10 renal): > 100 µM
- TGI (COLO 205 colon): > 100 µM
- TGI (HOP-62 NSCLC): > 100 µM
- TGI (SK-OV-3 ovarian): > 100 µM
- TGI (MCF7 breast): > 100 µM
- TGI (UO-31 renal): > 100 µM
- TGI (T-47D breast): > 100 µM
- TGI (HOP-92 NSCLC): > 100 µM
- TGI (OVCAR-5 ovarian): > 100 µM
- TGI (HCC-2998 colon): > 100 µM
- TGI (A549 NSCLC): > 100 µM
- TGI (U251 CNS): > 100 µM
- TGI (OVCAR-8 ovarian): > 100 µM
- TGI (ACHN renal): > 100 µM
- TGI (IGROV1 ovarian): > 100 µM
- TGI (UACC-62 melanoma): > 100 µM
- TGI (SW-620 colon): > 100 µM
- TGI (CAKI-1 renal): > 100 µM
- TGI (K-562 leukemia): > 100 µM

SMILES: CC(C)(C)c1cc(COc2cc(COc3ccc(-c4c5c(nc6c4CCc4ccc(-c7c8ccccc8nc8ccccc78)cc4-6)-c4cc(-c6c7ccccc7nc7ccccc67)ccc4CC5)cc3)cc(OCc3cc(C(C)(C)C)cc(C(C)(C)C)c3)c2)cc(C(C)(C)C)c1
- TGI (DU-145 prostate): > 100 µM
- TGI (MDA-N): > 100 µM
- TGI (BT-549 breast): > 100 µM
- TGI (786-0 renal): > 100 µM
- TGI (SN12C renal): > 100 µM
- TGI (RPMI-8226 leukemia): > 100 µM
- TGI (SF-295 CNS): > 100 µM
- TGI (KM12 colon): > 100 µM
- TGI (SK-MEL-28 melanoma): > 100 µM
- TGI (NCI-H460 lung): > 100 µM
- TGI (NCI-H23 lung): > 100 µM
- TGI (EKVX NSCLC): > 100 µM
- TGI (UACC-257 melanoma): > 100 µM
- TGI (A498 renal): > 100 µM
- TGI (MDA-MB-435): > 100 µM
- TGI (MDA-MB-231 breast): > 100 µM
- TGI (SNB-19 CNS): > 100 µM
- TGI (M14 melanoma): > 100 µM
- TGI (MALME-3M melanoma): > 100 µM
- TGI (HCT-15 colon): > 100 µM
- TGI (NCI-H226 lung): > 100 µM
- TGI (OVCAR-3 ovarian): > 100 µM
- TGI (OVCAR-4 ovarian): > 100 µM
- TGI (PC-3 prostate): > 100 µM
- TGI (HCT-116 colon): > 100 µM
- TGI (NCI/ADR-RES ovarian): > 100 µM
- TGI (NCI-H522 lung): > 100 µM
- TGI (SK-MEL-5 melanoma): > 100 µM
- TGI (SF-268 CNS): > 100 µM
- TGI (SK-MEL-2 melanoma): > 100 µM
- TGI (TK-10 renal): > 100 µM
- TGI (COLO 205 colon): > 100 µM
- TGI (HOP-62 NSCLC): > 100 µM
- TGI (SK-OV-3 ovarian): > 100 µM
- TGI (MCF7 breast): > 100 µM
- TGI (UO-31 renal): > 100 µM
- TGI (T-47D breast): > 100 µM
- TGI (HOP-92 NSCLC): > 100 µM
- TGI (OVCAR-5 ovarian): > 100 µM
- TGI (HCC-2998 colon): > 100 µM
- TGI (A549 NSCLC): > 100 µM
- TGI (U251 CNS): > 100 µM
- TGI (ACHN renal): > 100 µM
- TGI (SNB-75 CNS): > 100 µM
- TGI (UACC-62 melanoma): > 100 µM
- TGI (CAKI-1 renal): > 100 µM
- TGI (K-562 leukemia): > 100 µM

SMILES: COc1ccc(-c2nc3cc(F)ccc3s2)cc1O
- TGI (HT29 colon): > 100 µM
- TGI (DU-145 prostate): > 100 µM
- TGI (MDA-N): > 100 µM
- TGI (BT-549 breast): 54.1 µM
- TGI (786-0 renal): 55.1 µM
- TGI (SN12C renal): > 100 µM
- TGI (HL-60(TB) leukemia): 66.1 µM
- TGI (RPMI-8226 leukemia): 77.1 µM
- TGI (SF-295 CNS): 49 µM
- TGI (KM12 colon): > 100 µM
- TGI (MOLT-4 leukemia): > 100 µM
- TGI (SK-MEL-28 melanoma): > 100 µM
- TGI (NCI-H460 lung): > 100 µM
- TGI (NCI-H23 lung): > 100 µM
- TGI (EKVX NSCLC): 60.8 µM
- TGI (UACC-257 melanoma): 61.8 µM
- TGI (A498 renal): 66.3 µM
- TGI (MDA-MB-435): > 100 µM
- TGI (MDA-MB-231 breast): > 100 µM
- TGI (SF-539 CNS): > 100 µM
- TGI (SNB-19 CNS): > 100 µM
- TGI (RXF 393 renal): > 100 µM
- TGI (M14 melanoma): > 100 µM
- TGI (MALME-3M melanoma): > 100 µM
- TGI (HCT-15 colon): > 100 µM
- TGI (NCI-H226 lung): > 100 µM
- TGI (LOX IMVI melanoma): 79.3 µM
- TGI (OVCAR-3 ovarian): > 100 µM
- TGI (OVCAR-4 ovarian): > 100 µM
- TGI (PC-3 prostate): > 100 µM
- TGI (HCT-116 colon): > 100 µM
- TGI (CCRF-CEM leukemia): > 100 µM
- TGI (NCI/ADR-RES ovarian): > 100 µM
- TGI (NCI-H522 lung): 42.1 µM
- TGI (SK-MEL-5 melanoma): 59 µM
- TGI (SF-268 CNS): > 100 µM
- TGI (SK-MEL-2 melanoma): 78 µM
- TGI (SR leukemia): 47.7 µM
- TGI (TK-10 renal): 70 µM
- TGI (COLO 205 colon): 94.4 µM
- TGI (SK-OV-3 ovarian): > 100 µM
- TGI (MCF7 breast): > 100 µM
- TGI (UO-31 renal): > 100 µM
- TGI (T-47D breast): 46.9 µM
- TGI (OVCAR-5 ovarian): > 100 µM
- TGI (HCC-2998 colon): 12.7 µM
- TGI (A549 NSCLC): > 100 µM
- TGI (U251 CNS): > 100 µM
- TGI (OVCAR-8 ovarian): > 100 µM
- TGI (ACHN renal): > 100 µM
- TGI (IGROV1 ovarian): 81.3 µM
- TGI (UACC-62 melanoma): > 100 µM
- TGI (SW-620 colon): > 100 µM
- TGI (CAKI-1 renal): 64 µM
- TGI (K-562 leukemia): > 100 µM
